# Laboratory results taken from publication PMC11763059, “GENI as an AMPK Activator Binds α and γ Subunits and Improves the Memory Dysfunction of Alzheimer’s Disease Mouse Models via Autophagy and Neuroprotection” (Antioxidants, 2025).
# Tests used:
# [1] = mouse, in vivo
# Text: Each group comprised 10 mice. […] Dosing lasted for 10 weeks. […] The mice were sacrificed after 10 weeks of administration.
# At the end of the animal experiment, the epididymis fat, heart, liver, spleen, and kidney of the mice were removed for weighing analysis.
# PC12 cells [2] = assay: RT-PCR analysis of gene expression in PC12 cells; format: cell-based, Rat; conditions: PC12 cells under H2O2 induction
# Method: RT-PCR analysis was performed as described in the material and methods section in Supplementary Information.
# Supplementary information […]
# 1.1. Real-time polymerase chain reaction (RT-PCR) analysis
# PC12 cells (2 × 106) were seeded in 60 mm dishes and treated with RES (10 μM) or GENI (3 or 10μM) for 24h. Total RNA was extracted with TRIzol Reagent (Beijing Cowin Biotech Company, Beijing, China). RNA content was determined using an Eppendorf Biophotometer Plus (Eppendorf Company, Hamburg, Germany). Transcription was performed using 5 μg of total RNA, Oligo (dT)20 primer and reverse transcriptase (Beijing Cowin Biotech Company, Beijing, China). Transcript levels were quantified by real-time PCR (AB SCIEX, Massachusetts, USA) and SYBR Premix EX Taq™ (Takara, Otsu, Japan). Primers (Sangon Biotech Co. Ltd., Shanghai, China) used in this study are given in Supplementary Table S3. The thermocycling parameters for PC12 cells were as follows: SOD1 and SOD2: 95 ℃ for 2 min, then 40 cycles, 54 ℃ for 35 seconds; Bcl-x1 and Nrf2: 95 ℃ for 2 min, then 40 cycles, 95 ℃ for 15 seconds, 60 ℃ […]
# for 15 seconds, 68 ℃ for 20 seconds. All results were normalized to GAPDH RNA levels, and relative mRNA transcript levels were calculated using the ΔΔCt formula. […]
# For NO content evaluation, firstly, the NO assay kit was removed, and Griess Reagents I and II were warmed to room temperature. The standard substance was diluted with cell culture solution to 0, 1, 2, 5, 10, 20, 40, 60 and 100 μM. Secondly, 50 μL of standard reagent and the diluted sample were added into a 96-well plate. […]
# For IL-6 content evaluation, we prepared samples, standards and biotinylated antibody working […]
# 15.625 and 0 pg/mL for use, and blank holes were set. The 100 μL sample or standard substance of different concentrations was added to the corresponding hole, and about 50 μL of biotinylated antibody working liquid was added to the sample and standard substance hole. The reaction hole was sealed with sealing plate adhesive paper. The working liquid of the enzyme conjugate was prepared 30 min in advance by incubating at room temperature with a 300 rpm micro-oscillator for 120 min. The sample was placed at room temperature away from light, and the board was washed five times after incubation. In addition to the blank holes, 100 μL of enzyme conjugate working liquid was added to each hole, and the reaction holes were sealed with plate adhesive paper. The board was incubated at room temperature with a 300 rpm micro-oscillator for 60 min and then washed five times. […] About 100 μL of termination solution was added to each hole, and we measured the OD450 value immediately after mixing with a microplate reader (BioTek, California, USA).
# [3] = target: T1, AMPK-s4 (γ subunit- K148A) (Rattus norvegicus, UniProt P54645+P80385, K148A); assay: SPR analysis, AMPK mutant s4; format: binding
# T1 construct: His (N); made in house
# Method: Mammalian AMPK subunits (His-α1, β1, and γ1) were cloned into a pET-3d vector, and protein expression and purification were similar to the literature.
# SPR analysis was performed with a Biacore T200 instrument (GE Healthcare). Firstly, the purred His-tagged AMPK containing α1β1γ1 protein was captured onto an activated carboxymethylated 5 (CM5) chip using amine coupling to levels ranging from 4000 RU to 6000 RU. Secondly, GENI was dissolved in PBS-P buffer solution (0.05% (v/v) Tween 20 and PBS), and the concentration of GENI was 64 μM. Thirdly, the solution of GENI was diluted to 32 μM, 16 μM, 8 μM, 4 μM, 2 μM, 1 μM and 0.5 μM with PBS-P buffer solution. The sample was filtered by pumping through a […] membrane. A gradient concentration of GENI was injected at a flow rate of 30 μL/min in a running buffer (0.05% (v/v) Tween 20 and PBS). The data were analyzed with Biacore evaluation software (T200 version 2.0) and fitted to the 1:1 Langmuir binding model, and the kinetic parameters were derived.
# The non-covalent interaction between drugs and proteins is an important way to exert drug efficacy, and its mode of action and binding affinity usually determine the utilization and biological activity of drugs. AMPK is a heterotrimer complex consisting of an α subunit containing the kinase domain and two regulatory subunits (β- and γ-). […]
# PC12 cells [4] = assay: ROS assay (DCFH-DA) in PC12 cells; format: cell-based; conditions: GENI 1, 3 and 10 μM 24 h, 0.8 mM H2O2 1 h
# Method: To determine ROS levels in PC12 cells, we seeded 5 × 10^4 PC12 cells in each well of a 24-well plate. Cells were treated with RES (10 μM) or GENI (1, 3, and 10 μM) for 24 h, followed by 0.8 mM H2O2 for 1 h. DCFH-DA (2,7-dichlorodihydrofluorescein diacetate, final concentration, 10 μM) was then added to each well and incubated for 30 min. Cells were washed with PBS to remove extracellular DCFH-DA, and intercellular ROS was detected by using a SpectraMax M3 multimode microplate reader (Molecular Devices Corporation, San Jose, CA, USA) at an excitation wavelength of 488 nm and an emission wavelength of 525 nm. Meanwhile, DCF in PC12 cells was observed using a fluorescence microscope (HCS, Thermo Fisher, Science, Waltham, MA, USA). To detect malondialdehyde (MDA) content and total SOD enzymatic activities in PC12 cells, we seeded 2 × 10^6 PC12 cells in 60 mm dishes containing 5 mL of DMEM and cultured the cells for 24 h. PC12 cells were treated with RES (10 μM) or GENI (3 or 10 μM) for 24 h and then treated with 0.8 mM H2O2 for 1 h to determine the MDA content and total superoxide dismutase (SOD) activities. Cells were lysed and centrifuged. […] MDA quantification and total SOD activities were determined using MDA and SOD enzyme activity assay kits (Nanjing Jiancheng Bioengineering Institute, Nanjing, China) following the manufacturer’s instructions.
# T1 sequence (P54645 13-559 limits assumed): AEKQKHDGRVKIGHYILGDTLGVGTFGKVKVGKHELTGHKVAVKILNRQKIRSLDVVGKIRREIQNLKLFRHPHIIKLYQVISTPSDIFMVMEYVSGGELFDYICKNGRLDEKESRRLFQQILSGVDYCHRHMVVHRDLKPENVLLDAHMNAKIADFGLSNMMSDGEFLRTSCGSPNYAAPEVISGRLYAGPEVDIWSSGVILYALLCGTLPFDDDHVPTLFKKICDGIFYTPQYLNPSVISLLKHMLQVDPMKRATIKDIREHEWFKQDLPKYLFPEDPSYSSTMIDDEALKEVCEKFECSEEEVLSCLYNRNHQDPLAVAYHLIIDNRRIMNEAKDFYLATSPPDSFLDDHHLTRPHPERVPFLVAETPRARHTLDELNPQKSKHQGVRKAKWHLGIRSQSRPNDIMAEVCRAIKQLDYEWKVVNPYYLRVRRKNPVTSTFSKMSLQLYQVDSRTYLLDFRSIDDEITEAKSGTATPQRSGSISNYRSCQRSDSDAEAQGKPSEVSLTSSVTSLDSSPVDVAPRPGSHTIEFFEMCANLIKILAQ
# T1 sequence (P80386 whole entry partner): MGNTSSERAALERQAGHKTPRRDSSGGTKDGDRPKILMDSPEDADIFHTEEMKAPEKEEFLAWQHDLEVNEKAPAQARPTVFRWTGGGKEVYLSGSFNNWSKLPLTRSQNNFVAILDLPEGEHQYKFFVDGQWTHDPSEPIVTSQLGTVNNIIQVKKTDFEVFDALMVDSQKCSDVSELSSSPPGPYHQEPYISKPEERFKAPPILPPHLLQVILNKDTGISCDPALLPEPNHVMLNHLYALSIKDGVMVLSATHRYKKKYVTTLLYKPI
# T1 sequence (P80385 whole entry K148A): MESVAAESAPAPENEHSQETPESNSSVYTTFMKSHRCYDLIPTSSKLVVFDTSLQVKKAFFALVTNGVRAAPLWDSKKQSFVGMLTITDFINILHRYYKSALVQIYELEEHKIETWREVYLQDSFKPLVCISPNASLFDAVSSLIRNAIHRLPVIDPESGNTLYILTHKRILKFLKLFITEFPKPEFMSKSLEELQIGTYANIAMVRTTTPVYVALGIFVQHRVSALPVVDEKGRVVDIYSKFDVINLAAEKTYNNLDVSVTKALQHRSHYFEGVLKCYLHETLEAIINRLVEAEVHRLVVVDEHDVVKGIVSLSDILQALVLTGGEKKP
structure (smiles),measurement,setting,value
"CC(C)CCOC(=O)C1=CO[C@@H](O[C@@H]2O[C@H](CO)[C@@H](O)[C@H](O)[C@H]2O)C2C(CO)=CCC12 (some centres unmarked) [GENI, Geniposidic 4-isoamyl ester]",myocardial hypertrophy and toxic side effects,[1],did not find
same,abundance of Bcl-x1 mRNA,PC12 cells [2],significantly increased
same,abundance of Nrf2 mRNA,PC12 cells [2],significantly increased
same,gene expression of SOD1,PC12 cells [2]; GENI 3 or 10 μM 24 h,increased
same,gene expression of SOD2,PC12 cells [2]; GENI 3 or 10 μM 24 h,increased
same,kon,"[3]; SPR, association rate, read-out: Ka",4130 M⁻¹ s⁻¹
same,dose-dependent relationship in SPR,[3]; point mutation of K148,dose-dependent relationship was lost
same,H2O2-induced increase in ROS,PC12 cells [4],significantly reduce
